The target in one experiment is T1, human PBGS (Homo sapiens, UniProt P13716).
T1 sequence (P13716 1-330): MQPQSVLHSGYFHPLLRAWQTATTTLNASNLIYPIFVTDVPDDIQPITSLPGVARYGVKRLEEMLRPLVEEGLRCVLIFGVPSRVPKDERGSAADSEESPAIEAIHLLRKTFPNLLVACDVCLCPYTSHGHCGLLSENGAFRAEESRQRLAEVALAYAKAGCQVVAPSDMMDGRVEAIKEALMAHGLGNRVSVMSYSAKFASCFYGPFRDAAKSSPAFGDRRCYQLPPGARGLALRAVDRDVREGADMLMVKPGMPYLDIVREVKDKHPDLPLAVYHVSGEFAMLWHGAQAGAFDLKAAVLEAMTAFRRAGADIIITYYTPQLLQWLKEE
The experiment in a line: native PAGE gel shift of human PBGS. Format: biochemical, H. sapiens. How it is done: (§1) FIG. 33 illustrates the species-specific effects of morphlock-1 on PBGS—FIG. 33(a) Dose-response curves showing morphlock-1 inhibition of pea PBGS at 1 μg/ml (∘) and human PBGS at 0.6 μg/ml (Δ) and 10 μg/ml (□). The proteins were incubated in the presence of 10× inhibitor for 30 minutes at 37° C. prior to assay. The concentrations on the X-axis represent the final concentration of morphlock-1 in the assay. FIG. 33(b). The IC50 for morphlock-1 is a function of pea PBGS concentration. IC50 values were determined as per part (a) using the noted concentrations of pea PBGS. (c) Native PAGE evaluation of the effect of morphlock-1 on the quaternary structure equilibria of PBGS (˜1 mg/ml) from D. melanogaster, P. aeruginosa, V. cholerae, and H. sapiens. Note that the charge/mass ratio is not the same for PBGS from different species.
(§2) The putative morphlock-1 binding site is phylogenetically variable (see below). As such, morphlock-1 would not be expected to inhibit human PBGS. The effect of morphlock-1 on the activity of human PBGS was also determined at the midpoint of the protein concentration-dependent specific activity. […] To further establish the species-selectivity of morphlock-1, the gel shift assay was also carried out for PBGS from P. aeruginosa, and V. cholerae.
A general note: A gel shift assay detects complexes by their altered migration in electrophoresis.

The next experiment deals with T2, pea PBGS (Pisum sativum, UniProt P30124).
T2 sequence (P30124 69-398 limits assumed): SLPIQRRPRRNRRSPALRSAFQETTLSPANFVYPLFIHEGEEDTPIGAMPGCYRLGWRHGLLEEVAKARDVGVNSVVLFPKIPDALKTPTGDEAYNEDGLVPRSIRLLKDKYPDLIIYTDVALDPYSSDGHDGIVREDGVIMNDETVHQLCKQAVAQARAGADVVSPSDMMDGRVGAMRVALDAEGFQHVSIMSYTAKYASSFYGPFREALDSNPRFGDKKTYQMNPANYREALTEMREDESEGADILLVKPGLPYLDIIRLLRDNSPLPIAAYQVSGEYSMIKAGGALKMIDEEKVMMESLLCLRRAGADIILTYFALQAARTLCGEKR
As to the kind of experiment: pea PBGS activity assay (inhibition, protein concentration dependent specific activity). Format: biochemical. Details: made in house. How it is done: FIG. 32(a) The inhibitor morphlock-1 is illustrated as posed by Glide. The subunits A, B, and E are illustrated as ribbon diagram. Morphlock-1 is shown with carbon atoms and illustrated as ball and stick. FIG. 32(b) The chemical structure of morphlock-1. […] Pea PBGS was incubated with various concentrations of morphlock-1 (in a DMSO solution). Each concentration of morphlock-1 with a fixed amount of DMSO was incubated with protein for 30 minutes at 37° C. prior to resolution on 12.5% polyacrylamide native PhastGels. […] (d) The protein concentration dependence of pea PBGS specific activity is illustrated. […] The final concentration of morphlock-1 in the inhibited assay was 5 μM, and the concentration of PBGS in the inhibited and control assays ranged from 0.05-50 μg/mL (0.014-1.4 μM).
The proteins were incubated in the presence of 10× inhibitor for 30 minutes at 37° C. prior to assay. The concentrations on the X-axis represent the final concentration of morphlock-1 in the assay. FIG. 33(b). […] IC50 values were determined as per part (a) using the noted concentrations of pea PBGS. (c) Native PAGE evaluation of the effect of morphlock-1 on the quaternary structure equilibria of PBGS (˜1 mg/ml) from D. melanogaster, P. aeruginosa, V. cholerae, and H. sapiens. Note that the charge/mass ratio is not the same for PBGS from different species.
The dose response curve for morphlock-1 inhibition of pea PBGS (FIG. 37a) was initially carried out at 0.03 μM pea PBGS, where the hexamer is a significant component of the equilibrium mixture; the morphlock-1 concentration was varied from 0.1 μM to 0.1 mM.
The dose response curve for morphlock-1 inhibition of pea PBGS (FIG. 33(a)) was initially carried out at 0.03 μM pea PBGS, where the hexamer is a significant component of the equilibrium, in order to optimize the observed inhibition; the morphlock-1 concentration was varied from 0.1 μM to 0.1 mM.

The next experiment concerns V. cholerae PBGS. The experiment in a line: native PAGE gel shift of V. cholerae PBGS. Format: biochemical. To be noted: V. cholerae PBGS ~1 mg/ml. The protocol:
as §1, §2

In another experiment the target is P. aeruginosa PBGS (Pseudomonas aeruginosa, UniProt Q59643). As to the kind of experiment: native PAGE gel shift of P. aeruginosa PBGS. To be noted: P. aeruginosa PBGS ~1 mg/ml. Type of experiment: biochemical. The protocol:
as §1, §2

Like-named read-outs stand apart in the source and are kept apart here.

P. aeruginosa PBGS, sequence (Q59643 whole entry): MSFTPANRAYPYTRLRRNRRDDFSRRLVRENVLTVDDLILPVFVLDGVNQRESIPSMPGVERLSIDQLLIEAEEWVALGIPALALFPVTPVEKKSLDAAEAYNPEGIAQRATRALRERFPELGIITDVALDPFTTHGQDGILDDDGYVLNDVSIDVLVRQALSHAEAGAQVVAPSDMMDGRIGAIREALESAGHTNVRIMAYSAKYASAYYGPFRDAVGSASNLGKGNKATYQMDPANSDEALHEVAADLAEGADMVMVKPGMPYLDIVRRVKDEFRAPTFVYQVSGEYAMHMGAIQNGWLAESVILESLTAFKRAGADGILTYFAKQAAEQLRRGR

With `O=C1Nc2ccc(S(=O)(=O)NCC(O)c3ccc([N+](=O)[O-])cc3)c3cccc1c23` (stereo not drawn) [morphlock-1, 2-oxo-1,2-dihydro-benzo(cd)indole-6-sulfonic acid[2-hydroxy-2-(4-nitro-phenyl)-ethyl]-amide], the “effect on mobility of human PBGS on native PAGE gel” value on human PBGS is “nor does it effect the mobility of human PBGS”. In addition, the IC50 at pea PBGS (0.03 μM pea PBGS, morphlock-1 0.1 μM to 0.1 mM, 30 minutes at 37° C. prior to assay, read-out: apparent IC50 of morphlock-1 inhibition of pea PBGS) is 1.2 µM; on pea PBGS (low protein concentration, activity assays, read-out: IC50 by kinetic analysis / activity assays (and native PAGE with more sensitive staining)), about 1 µM. Further, on pea PBGS (morphlock-1 set at 5 μM, K(0.5) without morphlock-1 0.064 μM), the “K(0.5) of the protein concentration dependent specific activity in the presence of morphlock-1” value came out at 0.134 µM. Besides, the “perturbation of the quaternary structure equilibrium, gel shift assay” value with V. cholerae PBGS and at P. aeruginosa PBGS was “did not cause any perturbation of the quaternary structure equilibrium” in each case.
